This is an account of results in US9216998B2, “Tricyclic indole derivatives useful endothelial lipase inhibitors” (Janssen Pharmaceutica, NV, priority 2012, dated 2015).

The target of one test is Mouse EL (Mus musculus (Mouse), UniProt Q9WVG5). The experiment in a line: Endothelial lipase assay, cell surface lipase activity (mouse EL). It counts as cell-based. To be noted: PLA1 substrate 10 μM, fluorescence rate. The method, then: [The source words this procedure for another species and reports this species under the same test.] (§1) To assay for cell surface lipase activity, cells expressing human endothelial lipase (EL) or LPL were plated in CellBIND® 384-well plates (Corning, Lowell, Mass.) in 25 μL serum free medium at a density of 2000 cells/well. After 18-24 hours incubation at 37° C., the medium was removed and replaced with 15 μL assay buffer [Hank's Buffered Saline Solution with 25 mM HEPES pH 7.2] and 15 μL PLA1 substrate for a final concentration of 10 μM using a Multidrop reagent dispenser. Fluorescence signal was monitored for 30 min at 37° C. on a Safire II plate reader in kinetic mode (60 cycles, kinetic interval: 30 seconds) with an excitation wavelength of 490 nm and an emission wavelength of 515 nm. […] The amount of BODIPY-labeled product generated was calculated at the 30 min time point as determined from standard curve analysis of purified BODIPY FL C5.

The target in test [1] is human endothelial lipase (EL) (Homo sapiens (Human), UniProt Q9Y5X9). The experiment in a line: Endothelial lipase assay, cell surface lipase activity (human EL). It counts as cell-based. As to conditions: cells expressing human EL, PLA1 substrate 10 μM, fluorescence rate. The method, then:
as §1

SMILES strings stand for the structures.

Chain of human endothelial lipase (EL) (Q9Y5X9 21-500): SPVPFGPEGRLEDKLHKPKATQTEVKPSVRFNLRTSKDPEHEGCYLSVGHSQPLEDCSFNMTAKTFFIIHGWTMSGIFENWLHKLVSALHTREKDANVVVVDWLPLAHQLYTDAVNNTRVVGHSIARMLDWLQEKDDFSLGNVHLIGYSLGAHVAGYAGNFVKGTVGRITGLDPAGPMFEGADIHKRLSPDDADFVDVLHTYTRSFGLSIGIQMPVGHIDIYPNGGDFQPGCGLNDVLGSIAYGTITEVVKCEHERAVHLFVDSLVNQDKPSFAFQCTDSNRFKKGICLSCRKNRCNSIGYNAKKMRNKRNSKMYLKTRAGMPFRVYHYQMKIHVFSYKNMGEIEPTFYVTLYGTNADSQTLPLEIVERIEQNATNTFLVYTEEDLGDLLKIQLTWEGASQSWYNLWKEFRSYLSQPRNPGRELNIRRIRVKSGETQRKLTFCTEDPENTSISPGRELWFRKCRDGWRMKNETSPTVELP
Chain of Mouse EL (Q9WVG5 21-500): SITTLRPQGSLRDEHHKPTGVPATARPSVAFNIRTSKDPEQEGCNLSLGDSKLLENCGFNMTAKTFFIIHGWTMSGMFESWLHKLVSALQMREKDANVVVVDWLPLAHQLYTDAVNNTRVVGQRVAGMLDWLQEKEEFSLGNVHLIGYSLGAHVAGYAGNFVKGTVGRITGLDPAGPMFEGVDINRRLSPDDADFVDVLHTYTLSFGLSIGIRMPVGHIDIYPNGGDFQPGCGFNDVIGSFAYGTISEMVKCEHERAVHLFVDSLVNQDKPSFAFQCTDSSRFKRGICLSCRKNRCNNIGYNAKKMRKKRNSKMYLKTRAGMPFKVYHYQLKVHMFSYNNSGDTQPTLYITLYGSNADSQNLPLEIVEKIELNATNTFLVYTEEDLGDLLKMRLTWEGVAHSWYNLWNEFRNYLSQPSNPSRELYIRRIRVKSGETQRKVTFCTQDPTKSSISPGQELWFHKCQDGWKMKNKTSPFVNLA

In general, IC50 refers to the concentration that inhibits the measured activity by half. In the case of `FC(F)(F)c1c(CCc2ccccc2)n2c3c(cccc13)CCC2` [Compound 2, 2-Phenethyl-1-(trifluoromethyl)-5,6-dihydro-4H-pyrrolo[3,2,1-ij]quinoline, reference compound], the values for the IC50 (against Mouse EL; in test [1]) were 0.048 µM and 0.022 µM, respectively.

Turning to `OCCN1CCn2c(CCc3ccccc3)c(C(F)(F)F)c3cccc(c32)C1` [Compound 23, 2-(6-phenethyl-7-(trifluoromethyl)-3,4-dihydro-[1,4]diazepino[6,7,1-hi]indol-2(1H)-yl)ethanol], the concentration for half-maximal inhibition (IC50) against Mouse EL was determined as 0.346 µM; in test [1], 0.28 µM.

As to `FC(F)(F)c1c(CCCc2ccccc2)n2c3c(cccc13)CC2` [Compound 1], the IC50 on Mouse EL stood at 0.195 µM; in test [1], 0.185 µM.

On to `COc1cc2c3c(c1)c(C(F)(F)F)c(CCc1ccccc1)n3CCC2` [Compound 5], for which the IC50 on Mouse EL worked out at 0.017 µM; in test [1], 0.014 µM.

With `O=C(Nc1ccccc1)N1CCn2c(CCc3ccccc3)c(C(F)(F)F)c3cccc(c32)C1` [Compound 14, 6-phenethyl-N-phenyl-7-(trifluoromethyl)-3,4-dihydro-[1,4]diazepino[6,7,1-hi]indole-2(1H)-carboxamide], the figures for the IC50 (on Mouse EL; in test [1]) were 0.162 µM and 0.168 µM, respectively.

Turning to `CN(C)CC(=O)N1CCn2c(CCc3ccccc3)c(C(F)(F)F)c3cccc(c32)C1` [Compound 16, 2-(dimethylamino)-1-(6-phenethyl-7-(trifluoromethyl)-3,4-dihydro-[1,4]diazepino[6,7,1-hi]indol-2(1H)-yl)ethanone], the IC50 against Mouse EL stood at 1 µM; in test [1], 0.959 µM.

`FC(F)(F)c1c(CCCc2ccccc2)n2c3c(cccc13)SCC2` [Compound 28]: the IC50 (against Mouse EL; in test [1]) was 33.3 µM each time.

For `CS(=O)(=O)N1CCn2c(CCc3ccccc3)c(C(F)(F)F)c3cccc(c32)C1` [Compound 24, 2-(methylsulfonyl)-6-phenethyl-7-(trifluoromethyl)-1,2,3,4-tetrahydro-[1,4]diazepino[6,7,1-hi]indole], the IC50 on Mouse EL was 0.34 µM; in test [1], 0.186 µM.

Regarding `O=C(CC(F)(F)F)N1CCn2c(CCc3ccccc3)c(C(F)(F)F)c3cccc(c32)C1` [Compound 21, 3,3,3-trifluoro-1-(6-phenethyl-7-(trifluoromethyl)-3,4-dihydro-[1,4]diazepino[6,7,1-hi]indol-2(1H)-yl)propan-1-one], the IC50 stood at 0.237 µM on Mouse EL and 0.255 µM in test [1].

In the case of `NCC(=O)N1CCn2c(CCc3ccccc3)c(C(F)(F)F)c3cccc(c32)C1` [Compound 18, 2-amino-1-(6-phenethyl-7-(trifluoromethyl)-3,4-dihydro-[1,4]diazepino[6,7,1-hi]indol-2(1H)-yl)ethanone], the half-inhibitory concentration (IC50) on Mouse EL was 1.89 µM; in test [1] it was 2.02 µM.

`Oc1cc2c3c(c1)c(C(F)(F)F)c(CCc1ccccc1)n3CCC2` [Compound 6]: the IC50 came out at 0.136 µM on Mouse EL and 0.071 µM in test [1].

For `N=C(N)N1CCn2c(CCc3ccccc3)c(C(F)(F)F)c3cccc(c32)C1` [Compound 17, 6-phenethyl-7-(trifluoromethyl)-3,4-dihydro-[1,4]diazepino[6,7,1-hi]indole-2(1H)-carboximidamide], the concentration for half-maximal inhibition (IC50) against Mouse EL worked out at 3.62 µM; in test [1], 4.82 µM.

On to `CC(C)NC(=O)N1CCn2c(CCc3ccccc3)c(C(F)(F)F)c3cccc(c32)C1` [Compound 12, N-isopropyl-6-phenethyl-7-(trifluoromethyl)-3,4-dihydro-[1,4]diazepino[6,7,1-hi]indole-2(1H)-carboxamide], for which the IC50 is 0.131 µM against Mouse EL and 0.135 µM in test [1].

For the compound `FC(F)(F)c1c(CCCc2ccccc2)n2c3c(cccc13)OCC2` [Compound 26], the half-inhibitory concentration (IC50) at Mouse EL was 0.618 µM; in test [1], 0.413 µM.

Turning to `CC(C)(C)OC(=O)N1CCn2c(CCc3ccccc3)c(C(F)(F)F)c3cccc(c32)C1` [Compound 13, tert-butyl 6-phenethyl-7-(trifluoromethyl)-3,4-dihydro-[1,4]diazepino[6,7,1-hi]indole-2(1H)-carboxylate], the IC50 was found to be 0.124 µM against Mouse EL and 0.15 µM in test [1].

`FC(F)(F)c1c(CCc2ccccc2)n2c3c(cccc13)OCC2` [Compound 25, 5-phenethyl-6-(trifluoromethyl)-2,3-dihydro-[1,4]oxazino[2,3,4-hi]indole]: the IC50 against Mouse EL was 0.031 µM; in test [1], 0.039 µM.

As for `CC(=O)OCC(=O)N1CCn2c(CCc3ccccc3)c(C(F)(F)F)c3cccc(c32)C1` [Compound 20, 2-oxo-2-(6-phenethyl-7-(trifluoromethyl)-3,4-dihydro-[1,4]diazepino[6,7,1-hi]indol-2(1H)-yl)ethyl acetate], the IC50 turned out to be 0.479 µM at Mouse EL and 0.442 µM in test [1].

As for `FC(F)(F)c1c(CCCOc2ccccc2)n2c3c(cccc13)OCC2` [Compound 27], the half-maximal inhibitory concentration (IC50) against Mouse EL stood at 0.108 µM; in test [1], 0.082 µM.

On to `FC(F)(F)c1c(CCc2ccccc2)n2c3c(cccc13)CCCC2` [Compound 9, 2-phenethyl-1-(trifluoromethyl)-4,5,6,7-tetrahydroazepino[3,2,1-hi]indole], for which the IC50 stood at 0.036 µM on Mouse EL and 0.043 µM in test [1].

Consider `FC(F)(F)c1c(CCCc2ccccc2)n2c3c(cccc13)CCC2` [Compound 4], for which the IC50 was 0.205 µM on Mouse EL and 0.143 µM in test [1].

Consider `FC(F)(F)c1c(Cc2ccccc2)n2c3c(cccc13)CCC2` [Compound 3], for which the IC50 worked out at 0.096 µM against Mouse EL and 0.115 µM in test [1].

On to `FC(F)(F)c1c(CCc2ccccc2)n2c3c(cccc13)CNCC2` [Compound 15, 6-phenethyl-7-(trifluoromethyl)-1,2,3,4-tetrahydro-[1,4]diazepino[6,7,1-hi]indole], for which the values for the half-maximal inhibitory concentration (IC50) (against Mouse EL; in test [1]) were 0.677 µM and 0.694 µM, respectively.

As for `FC(F)(F)c1c(CCCc2ccccc2)n2c3c(cccc13)CCCC2` [Compound 11], the IC50 on Mouse EL was 1.2 µM; in test [1] it was 0.36 µM.
